Calls of active or inactive are those of the source.

One assay has as its system Jurkat. The assay can be described thus: antigen receptor-induced NF-kB inhibitors, dose response, Jurkat, luciferase reporter, luminescence, B- and T-cell (AID 489004).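 Also: NF-kB luciferase reporter Jurkat cells stimulated with PMA plus ionomycin.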 The class given is functional, cell-based. The note with it: Homo sapiens. (In general: In a reporter assay the amount or activity of a reporter protein is the signal.)
Assay [1] addresses T1, Replicative DNA helicase DnaB (Mycobacterium tuberculosis, UniProt P9WMR3).
T1 sequence (P9WMR3 whole entry): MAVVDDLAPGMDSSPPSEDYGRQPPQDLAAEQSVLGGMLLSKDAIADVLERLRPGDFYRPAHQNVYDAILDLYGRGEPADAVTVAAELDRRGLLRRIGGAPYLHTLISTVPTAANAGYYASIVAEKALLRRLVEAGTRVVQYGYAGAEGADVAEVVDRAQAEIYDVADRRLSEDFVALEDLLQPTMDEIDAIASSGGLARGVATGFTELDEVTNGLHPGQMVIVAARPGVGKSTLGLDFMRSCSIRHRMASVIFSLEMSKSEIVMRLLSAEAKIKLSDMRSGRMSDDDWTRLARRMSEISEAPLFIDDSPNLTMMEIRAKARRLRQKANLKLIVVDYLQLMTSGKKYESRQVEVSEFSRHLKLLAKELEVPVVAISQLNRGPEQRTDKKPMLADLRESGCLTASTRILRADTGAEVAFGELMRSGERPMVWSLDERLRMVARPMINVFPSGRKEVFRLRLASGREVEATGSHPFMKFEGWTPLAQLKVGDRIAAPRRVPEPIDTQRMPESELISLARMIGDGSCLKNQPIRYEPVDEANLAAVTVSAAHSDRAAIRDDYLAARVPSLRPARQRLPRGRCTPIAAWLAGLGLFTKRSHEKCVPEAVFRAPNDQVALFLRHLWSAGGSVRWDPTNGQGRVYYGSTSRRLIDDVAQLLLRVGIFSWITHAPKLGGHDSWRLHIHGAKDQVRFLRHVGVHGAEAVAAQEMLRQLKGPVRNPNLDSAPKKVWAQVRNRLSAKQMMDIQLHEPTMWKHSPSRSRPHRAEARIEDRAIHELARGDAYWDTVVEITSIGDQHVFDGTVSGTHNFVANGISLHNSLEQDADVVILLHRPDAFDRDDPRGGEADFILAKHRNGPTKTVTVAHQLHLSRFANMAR
The assay can be described thus: DnaB intein splicing inhibitors, dose response, biochemical, cell-free fluorescence (AID 449749). The format is functional.

In assay [2] the target is T2, Zinc finger protein mex-5 (Caenorhabditis elegans, UniProt Q9XUB2).
T2 sequence (Q9XUB2 whole entry): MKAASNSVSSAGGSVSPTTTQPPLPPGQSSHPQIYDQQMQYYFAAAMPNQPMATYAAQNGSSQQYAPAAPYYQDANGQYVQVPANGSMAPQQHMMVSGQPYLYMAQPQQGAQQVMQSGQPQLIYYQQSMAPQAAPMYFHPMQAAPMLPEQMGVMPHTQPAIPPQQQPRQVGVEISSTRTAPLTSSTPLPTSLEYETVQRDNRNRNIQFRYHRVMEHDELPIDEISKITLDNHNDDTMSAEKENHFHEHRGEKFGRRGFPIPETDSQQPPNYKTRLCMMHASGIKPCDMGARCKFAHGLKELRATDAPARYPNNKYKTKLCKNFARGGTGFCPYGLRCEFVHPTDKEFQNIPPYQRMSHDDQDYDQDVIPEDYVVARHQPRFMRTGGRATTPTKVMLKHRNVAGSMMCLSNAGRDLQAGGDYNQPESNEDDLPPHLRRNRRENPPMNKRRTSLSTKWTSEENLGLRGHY
The assay can be described thus: MEX-5/TCR-2 RNA interaction inhibitors, dose response, biochemical, C. elegans, fluorescence polarization (AID 1960). A general note: Fluorescence polarisation rises when a labelled molecule tumbles more slowly, as on binding a larger partner.

For assay [3], the target named is T3, 1-phosphatidylinositol 4,5-bisphosphate phosphodiesterase beta-3 (Homo sapiens, UniProt Q01970).
T3 sequence (Q01970 whole entry): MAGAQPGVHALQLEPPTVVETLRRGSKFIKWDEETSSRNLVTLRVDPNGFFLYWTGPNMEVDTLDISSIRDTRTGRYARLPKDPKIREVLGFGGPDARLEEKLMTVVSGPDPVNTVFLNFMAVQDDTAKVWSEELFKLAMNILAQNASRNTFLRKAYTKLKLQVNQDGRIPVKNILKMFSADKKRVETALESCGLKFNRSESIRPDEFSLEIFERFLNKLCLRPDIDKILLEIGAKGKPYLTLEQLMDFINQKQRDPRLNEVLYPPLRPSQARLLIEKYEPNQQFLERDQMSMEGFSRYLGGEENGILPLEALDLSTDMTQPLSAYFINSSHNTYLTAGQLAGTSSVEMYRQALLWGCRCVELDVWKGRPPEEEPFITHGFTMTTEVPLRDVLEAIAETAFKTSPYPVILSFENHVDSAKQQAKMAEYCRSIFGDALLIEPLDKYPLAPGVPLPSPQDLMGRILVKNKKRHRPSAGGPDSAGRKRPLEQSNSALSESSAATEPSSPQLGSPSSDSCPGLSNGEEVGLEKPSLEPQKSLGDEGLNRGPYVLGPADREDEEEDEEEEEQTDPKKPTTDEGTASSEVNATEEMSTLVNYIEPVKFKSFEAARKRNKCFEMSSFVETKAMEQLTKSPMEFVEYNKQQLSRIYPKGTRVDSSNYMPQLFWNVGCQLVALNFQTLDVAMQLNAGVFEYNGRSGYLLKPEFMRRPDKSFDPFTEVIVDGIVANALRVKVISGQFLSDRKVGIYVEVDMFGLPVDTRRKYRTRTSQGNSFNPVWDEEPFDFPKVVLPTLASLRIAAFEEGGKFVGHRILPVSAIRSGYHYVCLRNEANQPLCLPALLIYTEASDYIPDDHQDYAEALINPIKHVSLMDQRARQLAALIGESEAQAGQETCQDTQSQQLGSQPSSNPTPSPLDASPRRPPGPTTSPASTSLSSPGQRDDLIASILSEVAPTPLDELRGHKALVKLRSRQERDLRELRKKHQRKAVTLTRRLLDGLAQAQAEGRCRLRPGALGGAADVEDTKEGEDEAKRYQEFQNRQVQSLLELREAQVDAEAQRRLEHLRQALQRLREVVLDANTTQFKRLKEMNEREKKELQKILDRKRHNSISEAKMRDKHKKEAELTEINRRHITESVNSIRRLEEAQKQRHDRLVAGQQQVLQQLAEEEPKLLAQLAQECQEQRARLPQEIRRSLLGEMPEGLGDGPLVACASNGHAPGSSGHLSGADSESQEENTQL
Nature of the assay: Fluorescence-based biochemical high throughput dose response assay to identify inhibitors of phospholipase C isozymes (PLC-B3).

One may read the IC50 as the point on the concentration scale where inhibition reaches its midpoint. One may read the AC50 as the concentration at which the activity in the assay is half-maximal. With `C=C1C(=O)O[C@@H]2C[C@@H](C)[C@@H]3C=CC(=O)[C@@]3(C)[C@@H](OC(=O)CC(=O)O[C@H]3[C@@H]4C(=C)C(=O)O[C@@H]4C[C@@H](C)[C@@H]4C=CC(=O)[C@]43C)[C@H]12`, the IC50 with Jurkat was 0.29 µM (active). Also, the AC50 in assay [1] was 111 µM (active).

The term EC50 denotes the concentration at which the effect is half-maximal. For the compound `CCN(CC)CCN1C(=O)c2cccc3cc(N)cc(c23)C1=O`, the EC50 in assay [2] was 5.13 µM (inconclusive). Further, the AC50 in assay [1] was 0.272 µM (active).

Regarding `O=S(=O)(O)c1cc(Cl)cc(N=Nc2ccc(O)cc2O)c1O`, the IC50 in assay [3] was > 122 µM (inactive).

Regarding `O=C(O)c1cccc(-n2cccc2/C=C2/NC(=O)N(c3ccc(Cl)cc3)C2=O)c1`, the IC50 in assay [3] was > 122 µM (inactive).

The values above are taken from ChEMBL document CHEMBL1201862, “PubChem BioAssay data set” (2004).
